# Measured values as given in article PMC13080230, “Zebrafish as a model for Catel–Manzke syndrome—identification and characterization of the zebrafish TGDS ortholog” (The Febs Journal, 2025).
# Substitutions are numbered along the chain they refer to.
# Key:
# zebrafish Tgds [1] = molecular target: T1, zebrafish Tgds (Danio rerio, UniProt A0AC58JQE1); assay: cycling assay of NAD+ tightly bound to the purified protein; type: binding; conditions: co-purified, tightly bound cofactor; protein from calculated extinction coefficient at 280 nm
# T1 construct: full coding region (347 residues) from ovary cDNA, pET-28a NdeI/XhoI, N-terminal 6xHis tag (cutting not mentioned), E. coli BL21 DE
# T1 sequence (A0AC58JQE1 1-347): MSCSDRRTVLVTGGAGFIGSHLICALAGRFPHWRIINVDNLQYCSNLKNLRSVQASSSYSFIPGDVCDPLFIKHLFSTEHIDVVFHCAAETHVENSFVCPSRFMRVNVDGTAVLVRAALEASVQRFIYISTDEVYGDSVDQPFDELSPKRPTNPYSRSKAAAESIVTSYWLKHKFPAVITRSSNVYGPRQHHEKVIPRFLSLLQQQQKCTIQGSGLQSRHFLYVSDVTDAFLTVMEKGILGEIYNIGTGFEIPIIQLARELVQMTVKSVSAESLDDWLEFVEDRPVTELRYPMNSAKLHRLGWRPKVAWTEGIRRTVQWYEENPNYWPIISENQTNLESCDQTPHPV
# Text: (§1) cycling assay of NAD+ tightly bound to the purified protein on zebrafish Tgds
# zebrafish Tgds [2] = molecular target: T2, zebrafish Tgds (Danio rerio, UniProt A0AC58JQE1, A89S); assay: as above; type: binding; conditions: co-purified, tightly bound cofactor; protein from calculated extinction coefficient at 280 nm
# T2 construct: full coding region (347 residues) from ovary cDNA, pET-28a NdeI/XhoI, N-terminal 6xHis tag (cutting not mentioned), E. coli BL21 DE
# T2 sequence (A0AC58JQE1 1-347 A89S): T1 sequence (A0AC58JQE1 1-347) with A89S
# Text: as §1
# zebrafish Tgds [3] = molecular target: T3, zebrafish Tgds (Danio rerio, UniProt A0AC58JQE1, E79G); assay: as above; type: binding; conditions: co-purified, tightly bound cofactor; protein from calculated extinction coefficient at 280 nm
# T3 construct: full coding region (347 residues) from ovary cDNA, pET-28a NdeI/XhoI, N-terminal 6xHis tag (cutting not mentioned), E. coli BL21 DE
# T3 sequence (A0AC58JQE1 1-347 E79G): T1 sequence (A0AC58JQE1 1-347) with E79G
# Text: as §1
# zebrafish Tgds [4] = molecular target: T4, zebrafish Tgds (Danio rerio, UniProt A0AC58JQE1, Y223H); assay: as above; type: binding; conditions: co-purified, tightly bound cofactor; protein from calculated extinction coefficient at 280 nm
# T4 construct: full coding region (347 residues) from ovary cDNA, pET-28a NdeI/XhoI, N-terminal 6xHis tag (cutting not mentioned), E. coli BL21 DE
# T4 sequence (A0AC58JQE1 1-347 Y223H): T1 sequence (A0AC58JQE1 1-347) with Y223H
# Text: as §1
# zebrafish Tgds [5] = molecular target: T1, zebrafish Tgds; assay: anion exchange HPLC; type: biochemical; conditions: PBS pH 7.3, 30 °C
Compound,NAD^+/protein molar ratio ^d (zebrafish Tgds [1]),NAD^+/protein molar ratio ^d (zebrafish Tgds [2]),NAD^+/protein molar ratio ^d (zebrafish Tgds [3]),NAD^+/protein molar ratio ^d (zebrafish Tgds [4]),anion exchange HPLC (zebrafish Tgds [5])
NC(=O)c1ccc[n+]([C@@H]2O[C@H](COP(=O)(O)OP(=O)(O)OC[C@H]3O[C@@H](n4cnc5c(N)ncnc54)[C@H](O)[C@@H]3O)[C@@H](O)[C@H]2O)c1 [NAD^+],0.55 mol/mol,0.39 mol/mol,0.16 mol/mol,0.04 mol/mol,–
Cc1cn([C@H]2C[C@H](O)[C@@H](COP(=O)(O)OP(=O)(O)O[C@H]3O[C@H](CO)[C@@H](O)[C@H](O)[C@H]3O)O2)c(=O)[nH]c1=O [TDP‐D‐glucose],–,–,–,–,The enzyme exhibited lower activity with TDP‐D‐glucose
